Measurements as given in patent US20250388597A1, “BIFUNCTIONAL PHOTOCROSSLINKING PROBES FOR COVALENT CAPTURE OF PROTEIN-NUCLEIC ACID COMPLEXES IN CELLS” (UNIVERSITY OF SOUTHERN CALIFORNIA, priority 2022, published 2025).

Legend:
Nkx2.5/DNA complex = biological target: T1, Nkx2.5/DNA complex (Homo sapiens, UniProt P52952); experiment: BFPX crosslinking of Nkx2.5/DNA complexes, SDS PAGE; format: biochemical; details: denaturing SDS PAGE; probes with UV
T1 construct: human Nkx2.5 DBD (the homeodomain); made in house
T1 sequence (P52952 138-197 limits assumed, one chain of several): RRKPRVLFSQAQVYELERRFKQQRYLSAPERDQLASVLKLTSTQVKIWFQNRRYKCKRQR
Experimental: FIG. 12H depicts BFPX crosslinking of Nkx2.5/DNA complexes. […] The various treatment combinations were list above the gel. The reactions were then analyzed by SDS PAGE under denaturing condition as described in FIG. 12D.

p53/DNA complex = biological target: T2, p53/DNA complex (Homo sapiens, UniProt P04637); experiment: BFPX crosslinking of p53/DNA complexes, SDS PAGE; format: biochemical; details: denaturing SDS PAGE; probes with UV; vs no-protein controls
T2 construct: the human tumor suppressor p53 DBD; made in house
T2 sequence (P04637 102-292 limits assumed, one chain of several): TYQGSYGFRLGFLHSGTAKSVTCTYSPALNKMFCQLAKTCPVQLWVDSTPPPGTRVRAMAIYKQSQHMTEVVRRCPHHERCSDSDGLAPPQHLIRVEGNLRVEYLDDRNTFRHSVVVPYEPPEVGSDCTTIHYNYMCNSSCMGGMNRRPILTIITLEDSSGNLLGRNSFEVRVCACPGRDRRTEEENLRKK
Experimental: FIG. 12I depicts BFPX crosslinking of p53/DNA complexes. The binding reactions between the human tumor suppressor p53 DBD and a 37 mer Cy5 labeled DNA containing a consensus p53 tetramer binding site (5′-/5Cy5/-[…]-3′, (SEQ ID NO: 8)) were set up and treated with BFPX probes and UV illumination as described in FIG. 12C. The various treatment combinations were list above the gel. The reactions were then analyzed by SDS PAGE under denaturing condition as described in FIG. 12D. […] Because p53 bind this this DNA substrate as a tetramer, crosslinked p53/DNA complexes may contain one or more p53 protein molecules. While the monomeric p53/DNA complex appears to be the dominant crosslinked protein-DNA complexes, higher-molecule weight species were visible in SDS gel, which may correspond to crosslinked higher-order p53/DNA complex.

FOXP3 in HEK293T cells = biological target: T3, FOXP3 in HEK293T cells (Homo sapiens, UniProt Q9BZS1); experiment: Capture of FLAG-tagged FOXP3 complexes in transfected HEK293T cells, whole cell lysate western blot; format: cell-based; details: for crosslinked FOXP3 complexes in probe and UV treated cells: SPB-AAD 10 or 100 μM, SPB-PEG4-AAD 100 μM, UV 2-5 min, vs controls lanes 1-3
T3 construct: AVI tag (N); TEV site (N); expressed in transfected cells; host or cells: HEK293T
T3 sequence (Q9BZS1 1-431): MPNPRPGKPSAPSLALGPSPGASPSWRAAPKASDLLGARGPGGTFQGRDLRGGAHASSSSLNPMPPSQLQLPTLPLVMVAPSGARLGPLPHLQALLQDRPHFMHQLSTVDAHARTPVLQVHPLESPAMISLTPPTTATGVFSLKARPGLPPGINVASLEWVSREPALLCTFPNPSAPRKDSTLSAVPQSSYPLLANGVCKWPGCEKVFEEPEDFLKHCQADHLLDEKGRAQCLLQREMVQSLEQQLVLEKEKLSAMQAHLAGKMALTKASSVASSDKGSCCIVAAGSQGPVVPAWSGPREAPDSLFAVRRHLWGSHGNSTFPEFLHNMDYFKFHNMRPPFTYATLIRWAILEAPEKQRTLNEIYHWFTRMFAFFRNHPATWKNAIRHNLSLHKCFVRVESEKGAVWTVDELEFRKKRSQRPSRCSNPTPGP
Experimental: FIG. 14C depicts 10 cm plate HEK293T cells (˜8.8 million) were transfected with 2 μg AVI-TEV-FLAG-FOXP3 for about 48 hr. The cells were harvested into 1.6 ml room temperature 1×DPBS buffer (with no calcium and magnesium). The cells were aliquoted into 300 μl per sample and each sample was added SPB-AAD 10 μM (A10) or 100 μM (A100) or SPB-PEG4-AAD 100 μM (p100). The samples were incubated at 37° C. for 30 min in dark with rotation. The samples were transferred to the middle wells of a 24-well plate (Corning #3527). With 300 μl, the liquid is about 1.5 mm high in a 24-well plate well. The samples on the 24-well plate were then UV illuminated (LED Chip: 21.4 mm×21.4 mm, 365-370 nm, 30 Watt, sample distance (the bottom of the well plate to the lamp plane) is 4 cm, exposure time 2-5 min at 4 degree C.). The BFPX-treated cells were recovered from the 24-well plate and washed using 1×DPBS, centrifuged at 500 g for 5 min to pellet the cells and remove the DPBS buffer. 0.5 million of the BFPX-treated cells was added 20 μl 1×RIPA buffer, shake on ice for 15 min to lyse the cells. The lysis mixture was then added 3 μl 10× MNase, 0.25 μl RnaseA, 12.5 Unit Mnase, and ddw to 30 μl, incubated at 37° C. for 15 min. The lysis mixture was then added 6 μl SDS loading dye (2% SDS), boil 10 min at 95° C. Run at 200V for 40 minutes on 4%-15% SDS-PAGE gel and analyzed by western blot (Transfer at 18V (30 mA) overnight, block in 2% BSA in PBS for 45 min, Primary antibody: 1:2000 anti-FLAG; room temperature, 2 hr; Secondary antibody: anti mouse light chain kappa 1: 100,000; Femto Signal ECL).
Finally, we tested the capture of transcription factors bound to genomic DNA inside cells. HEK293T cells transfected with FLAG-tagged FOXP3 were treated with various combination of UV illumination and probe (SPB-AAD: A; and P: SPB-PEG4-AAD). The cells were lysed in 1×RIPA buffer followed by RNase and MNase treatment. The whole cell lysate were then added SDS loading dye, heated at 95 degree C. and run on a 4-15% SDS PAGE gel and analyzed by western blot using an anti-FLAG antibody.

[1] = Precipitation of probe in the aqueous crosslinking reaction; format: physicochemical; details: aqueous binding reaction; SPB-AAD 125 μM (FIG. 7 lanes 4, 9); SPB-PEG3-AAD 100 μM (FIG. 8C lanes 2, 6)
Experimental: The robust stability of these complexes under strong denaturing conditions (2% SDS and boiling for 10 min) is consistent with the covalent nature of the crosslinking reaction as designed in BFPX. […] As the probe concentration increased, more crosslinked protein/DNA complexes were formed, and the multiple bands likely represented protein-DNA complexes with various degrees of crosslinking, because multiple SPB-AAD molecules could bind the flanking region of the DNA binding sites and engage crosslinking reactions with the protein. At high probe concentrations (lane 5 and lane 10), the complexes become more uniform, likely due to the saturation binding of the BFPX probe to DNA.
For the BFPX probe SPB-PEG3-AAD, when the probe concentration was sufficiently high (lane 3 and lane 7 of FIG. 8C), the crosslinking efficiency was more than 90% for the MEF2/DNA complex based on the DNA signal (comparing lane 3 and lane 1 in the 5FAM gel, the free DNA in lane 3 was nearly all gone as compared the strong band in lane 1). This is consistent with the protein signal (compare lane 3 and lane 1 in the CCB-250 stained gel, the free protein in lane 3 was very faint as compared with the strong band in lane 1).

Compound: C#CCCC1(CCNC(=O)CCCOc2c3occc3cc3ccc(=O)oc23)N=N1 [SPB-AAD, N-(2-(3-(but-3-yn-1-yl)-3H-diazirin-3-yl)ethyl)-4-((7-oxo-7H-furo[3,2-g]chromen-9-yl)oxy)butanamide]
- crosslinking of the Nkx2.5/DNA complex (Nkx2.5/DNA complex): significant crosslinking of the Nkx2.5/DNA complex
- crosslinking of the p53/DNA complex (p53/DNA complex): significant crosslinking of the p53/DNA complex
- dependence of crosslinked FOXP3 complex formation on probe concentration (FOXP3 in HEK293T cells; 10 μM (lane 4) vs 100 μM (lane 6)): dosage dependent on probe concentration
- crosslinked FOXP3 complexes in probe and UV treated cells (FOXP3 in HEK293T cells): higher molecular weight species containing FOXP3 were observed
- precipitation of probe at highest probe concentration [1]: precipitation of the probe in an aqueous solution

Compound: C#CCCC1(CCNC(=O)CCOCCOCCOCCOCCNC(=O)CCCOc2c3occc3cc3ccc(=O)oc23)N=N1 [SPB-PEG4-AAD, N-(2-(3-(but-3-yn-1-yl)-3H-diazirin-3-yl)ethyl)-1-(4-((7-oxo-7H-furo[3,2-g]chromen-9-yl)oxy)butanamido)-3,6,9,12-tetraoxapentadecan-15-amide]
- crosslinking of the Nkx2.5/DNA complex (Nkx2.5/DNA complex): significant crosslinking of the Nkx2.5/DNA complex
- crosslinking of the p53/DNA complex (p53/DNA complex): significant crosslinking of the p53/DNA complex
- crosslinked FOXP3 complexes in probe and UV treated cells (FOXP3 in HEK293T cells): higher molecular weight species containing FOXP3 were observed

Compound: C#CCCC1(CCNC(=O)CCOCCOCCOCCC(=O)NCCNC(=O)CCCOc2c3occc3cc3ccc(=O)oc23)N=N1 [SPB-PEG3-AAD]
- precipitation of probe at highest probe concentration [1]: the probe precipitated out of solution
